Assay results taken from PubChem BioAssay (NCI).
Where “and” joins values, the source holds several entries; their conditions need not be identical. Equal entries are not always repeated.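 Assay format: 96-well plates, 48-hour exposure. GI50 = concentration required for 50% inhibition of growth. The concentration for full growth arrest is given as TGI.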

System: NCI-H226 lung
Test: NCI anticancer screen, dose series, 48 h

Structure (SMILES)	GI50	TGI
COc1ccc(C(=O)c2cc(C)c(OC)c(C)c2)cc1OC(=O)CCl	4.27 µM	> 100 µM
O=C(Nc1ccccc1-c1nc2ccccc2[nH]c1=O)c1ccccc1	–	60.1 µM
C=C(C)CCN[Si](c1ccccc1)(c1ccccc1)C(C)(C)C	–	25.5 µM
CC1=[N+]([O-])c2ccccc2C(=O)C1=O	–	> 100 µM
NC(=O)c1cc(Cl)ccc1NC(=O)/C=C/c1ccccc1	6.42 µM	> 100 µM
O=C1/C(=C(/c2ccccc2)N2CCOCC2)Cc2ccccc21	3.39 µM	8.99 µM
CC1=CC(=O)C=CC1=O	20.4 µM and 33.1 µM	48.6 µM and 240 µM
CCCC(CCC)NCC(O)c1cc(-c2ccc(C(F)(F)F)cc2)nc(C(F)(F)F)c1 (stereo unspecified)	1.59 µM	3.08 µM
Cc1cc(C)c(NC(=O)c2sc3nc4c(cc3c2N)C(=O)CCC4)c(C)c1	5.81 µM	> 100 µM
CN(C)CCNc1ccc(CO)c2oc3ccc(O)cc3c(=O)c12	–	47.7 µM
Cc1ccc(NC(=O)c2cccc(C(C)(C)C#N)c2)cc1Nc1ccc2ncn(C)c(=O)c2c1	5.62 µM	> 100 µM
Cc1cc2ncnn2cc1Nc1ncc2c(n1)n(C1CCOCC1)c(=O)n2C	7.32 µM	> 100 µM
COc1ccc(C(=O)c2cc(C)c(OC)c(C)c2)c(OC)c1O	2.71 µM	9.06 µM
COCC[C@H]1CCC/C=C/[C@@H]2C[C@H](O)C[C@H]2[C@H](O)/C=C/C(=O)O1	0.0293 µM	0.121 µM
CN(Cc1ccccc1)C(=O)c1ccccc1C(=O)O	–	> 100 µM
CNC(=S)/N=C(\N)N(C)C	–	> 100 µM
CC(=O)C1Cn2c(nc3ccccc32)C[Se]1 (stereo unspecified)	–	12.5 µM
Nc1ccccc1C#C/C=C\C#Cc1ccccc1N	19.6 µM	53.8 µM
COC(=O)Nc1nc2ccc(C3(c4ccc(F)cc4)OCCO3)cc2[nH]1	2.15 µM	> 94 µM
CN(C)CCC1(C2=CCCC2)CC/C(=C\c2ccc(Cl)cc2)C1=O (stereo unspecified)	–	28.1 µM
CC1=CC(C)(C)N=C2SC(c3ccc(N)cc3)=NN12	–	> 100 µM
O=C(Nc1n[nH]c2cc(-c3ccccc3)ccc12)C1CC1	> 25 µM	> 25 µM
O=C1C2C3C=C4c5ccccc5N(c5ccccc5)C4(C2C(=O)N1c1ccc([N+](=O)[O-])cc1)[C@H]1C(=O)N(c2ccc([N+](=O)[O-])cc2)C(=O)[C@@H]31 (stereo partly specified)	–	> 100 µM

System: A549 NSCLC
Test: NCI anticancer screen, dose series, 48 h

Structure (SMILES)	TGI [µM]	GI50
CCOC(=O)/C(C)=C(/O)C(=O)OCC	> 100	–
O=C(O)CNS(=O)(=O)c1ccc(NC(=O)c2ccc([N+](=O)[O-])cc2)cc1	> 100	–
CCCCNC1CCCCC[C@H]1O (stereo partly specified)	> 100	–
N#Cc1cc(-c2cc3ccccc3o2)oc1N	> 100	3.7 µM
Cc1cc(C(=O)Nc2ccc3cc(CN4CCOCC4)ccc3n2)c(C)n1-c1ccccc1	12.1	2.42 µM
[N-]=[N+]=C1C(=O)NN=C1c1ccccc1	> 100	–
COc1ccc2c3c([nH]c2c1[N+](=O)[O-])C(C)N(C)CC3 (stereo unspecified)	> 100	–
CCOC(=O)N[C@@H]1C(CC(=O)OC)O[C@H]2OC(C)(C)O[C@H]21 (stereo partly specified)	> 100	–
CCCCCCCCCCCCCCCC(=O)OCC(C[As](=O)(O)O)OC(=O)CCCCCCCCCCCCCCC (stereo unspecified)	> 100	–
COc1cc(/C=C/c2ccc(OC)c(O)c2)cc(OC)c1	33.3	–
COc1ccc(C(=O)c2cc(C)c(OC)c(C)c2)cc1OC(=O)CCl	> 100	0.0845 µM
O=C(Nc1ccccc1-c1nc2ccccc2[nH]c1=O)c1ccccc1	69.9	–
C=C(C)CCN[Si](c1ccccc1)(c1ccccc1)C(C)(C)C	> 100	–
CC1=[N+]([O-])c2ccccc2C(=O)C1=O	> 100	–
NC(=O)c1cc(Cl)ccc1NC(=O)/C=C/c1ccccc1	> 100	4.18 µM
O=C1/C(=C(/c2ccccc2)N2CCOCC2)Cc2ccccc21	8.35	2.79 µM
CC1=CC(=O)C=CC1=O	66.8	79.4 µM and 24.9 µM
CCCC(CCC)NCC(O)c1cc(-c2ccc(C(F)(F)F)cc2)nc(C(F)(F)F)c1 (stereo unspecified)	3.28	1.79 µM
